Source: patent US11361527B2, “Automated robotic microscopy systems” (The J. David Gladstone Institutes, a testamentary trust …, priority 2012, dated 2022)

Test system: primary neurons transfected with TDP43 M337V
Assay: Automated neurite quantification in primary neurons transfected with TDP43 M337V (ALS disease model), robotic microscope
Format: cell-based
Details: fluphenazine 0.1 μM vs vehicle, images every 24 hours, FIG. 24
Protocol: Primary neurons were transfected with GFP as a control or TDP43 M337V. The disease model neurons were treated with fluphenazine (0.1 μM) or vehicle to determine whether autophagy could rescue TDP43 M337V mediated loss of neurites. Images were collected every 24 hours with the robotic microscope and neurites were quantified using automated analysis as described herein.
Further, counting the number of neurites in neuronal cultures can be an early and sensitive measure of cell health. Neurite retraction often precedes neuron death when cells are coping with neurodegenerative disease causing proteins. One way to detect neurites with low computational complexity is to quantify the total area of neurites in an image. A line detector may be used to identify pixels in an image that have local structures that represent a line. The determination is based on the second order pixel data (Hessian matrix), which is a measure of local intensity curvature. In certain aspects, such an approach uses the following parameters:
The output of the line detector is a binary image with pixels that are part of lines having a value of 1 and all other pixels having a value of 0. The pixels of this binary image are then summed to quantify the total area of neurites. […] Images were collected every 24 hours with the robotic microscope and neurites were quantified using automated analysis as described above.

SMILES: OCCN1CCN(CCCN2c3ccccc3Sc3ccc(C(F)(F)F)cc32)CC1 [fluphenazine]
- neurite degeneration induced by TDP43 M337V (loss of neurites, automated neurite quantification): mitigates neurite degeneration
